Legend:
[1] = system: mouse colorectal cancer cell line CT26; test: Test Example 3: mPGES-1 inhibitor and anti-mouse PD-1 antibody in combination in allograft model of mouse colorectal cancer cell line CT26; format: in vivo; details: female BALB/c mouse, tumor volume on 21st day
From the text: (§1) On the day of transplantation, after the culture supernatant was removed, CT26 was washed with HBSS and collected. Collected CT26 was suspended in HBSS and used as cells for transplantation.
Under anesthesia, 3.0x10^5 cells for transplantation were subcutaneously transplanted into the right-hand side abdomen of each female BALB/c mouse.
(§2) The anti-mouse PD-1 antibody was intraperitoneally administered to the mice of the single therapy group of the anti-mouse PD-1 antibody and the combination therapy group, at a dosage of 100 µg/individual, twice a week after transplantation, from the 7th day of transplantation to the 20th day of transplantation.
Regarding the tumor volume (mm^3), the length and width of a tumor were measured by using an electronic caliper, and the tumor volume was calculated by the following formula.

[2] = system: mouse colorectal cancer cell line CT26; test: Test Example 4: mPGES-1 inhibitor and anti-mouse CTLA-4 antibody in combination in allograft model of mouse colorectal cancer cell line CT26; format: in vivo; details: female BALB/c mouse
From the text: as §1
Under anesthesia, 3.0×10^5 cells for transplantation were subcutaneously transplanted into the right-hand side abdomen of each female BALB/c mouse.
as §2, with “anti-mouse CTLA-4” for “anti-mouse PD-1”, “group with” for “group of”, “combination” for “combination therapy”, “the 8th” for “the 7th”
Regarding the tumor volume (mm^3), the length and width of a tumor were measured by using an electronic caliper, and the tumor volume was calculated by the following formula

[3] = in combination with anti-mouse PD-1 antibody (100 µg/individual i.p. twice a week), compound 100 mg/kg orally twice a day, 7th to 20th day
[4] = used solely, 100 mg/kg (as free form) orally twice a day, 7th to 20th day of transplantation
[5] = in combination with anti-mouse CTLA-4 antibody (100 µg/individual i.p. twice a week), compound 100 mg/kg orally twice a day, 8th to 20th day
[6] = used solely, 100 mg/kg (as free substance) orally twice a day, 8th to 20th day of transplantation

Structure (SMILES) | tumor growth (tumor volume) [1, 3] | tumor growth (tumor volume) [1, 4] | tumor growth (tumor volume) [2, 5] | tumor growth (tumor volume) [2, 6]
COCc1nc2c(C(=O)Nc3cccc(Cl)c3C)cc(NC(=O)c3ccccc3C(F)(F)F)cc2[nH]1.Cc1ccc(S(=O)(=O)O)cc1 [compound 1, N-(3-chloro-2-methylphenyl)-2-(methoxymethyl)-6-({[2-(trifluoromethyl)phenyl]carbonyl}amino)-1H-benzimidazole-4-carboxamide 4-methylbenzenesulfonate] | tumor growth was suppressed | did not suppress tumor growth | tumor growth was suppressed | did not suppress tumor growth
Cc1c(Cl)cccc1NC(=O)c1cc(NC(=O)c2ccccc2C(F)(F)F)cc2[nH]c(C3(C(F)(F)F)CC3)nc12 [compound 2, N-(3-chloro-2-methylphenyl)-2-[1-(trifluoromethyl)cyclopropyl]-6-({[2-(trifluoromethyl)phenyl]carbonyl}amino)-1H-benzimidazole-4-carboxamide] | tumor growth was suppressed | did not suppress tumor growth | tumor growth was suppressed | did not suppress tumor growth
